We go through 1 compound from patent US10851062B2, “Substituted heteroaryl compound, composition containing same, and application thereof” (Shenzhen TargetRx, Inc., priority 2016, dated 2020).

Data set [1] in a line: Metabolic stability in human liver microsomes. It counts as in vitro ADME. The note with it: pH 7.4, human liver microsomes 0.5 mg/mL, compound 1 μM, NADPH, 37° C. The protocol:
(§1) Experiments in microsomes: Human liver microsomes: 0.5 mg/mL, Xenotech; Rat liver microsomes: 0.5 mg/mL, Xenotech; Coenzyme (NADPH/NADH): 1 mM, Sigma Life Science; Magnesium chloride: 5 mM, 100 mM phosphate buffer (pH 7.4).
(§2) Preparation of stock solution: Powder of the example compound 1-7 was accurately weighed and dissolved in DMSO to 5 mM. Preparation of phosphate buffer (100 mM, pH7.4): A pre-formulated 0.5M potassium dihydrogen phosphate (150 mL) was mixed with 0.5M dibasic potassium phosphate (700 mL). The pH of the mixture was adjusted to 7.4 with 0.5M dibasic potassium phosphate solution. The mixture was diluted 5-fold with ultrapure water before use, and magnesium chloride was added to obtain a phosphate buffer (100 mM) containing 100 mM potassium phosphate, 3.3 mM magnesium chloride, pH 7.4. A NADPH regeneration system solution (containing 6.5 mM NADP, 16.5 mM G-6-P, 3 U/mL G-6-PD, 3.3 mM magnesium chloride) was prepared and placed on wet ice prior to use. Preparation of stop solution: acetonitrile solution containing 50 ng/mL propranolol hydrochloride and 200 ng/mL tolbutamide (internal standard). 25057.5 μL of phosphate buffer (pH 7.4) was taken into a 50 mL centrifuge tube, to which 812.5 μL human liver microsomes were added, and mixed to obtain a liver microsome dilution solution with a protein concentration of 0.625 mg/mL. 25057.5 μL of phosphate buffer (pH 7.4) was taken into a 50 mL centrifuge tube, to which 812.5 μL SD rat liver microsomes were added, and mixed to obtain a liver microsome dilution solution with a protein concentration of 0.625 mg/mL.
(§3) Incubation of the samples: The stock solution of the respective compound was respectively diluted to 0.25 mM with an aqueous solution containing 70% acetonitrile, and used as a working solution, ready for use. 398 μL of the dilution solution of human liver microsomes or rat liver microsome were added to a 96-well incubation plate (N=2), respectively, and 2 μL of 0.25 mM working solution was added and mixed.
(§4) Metabolic stability assay: 300 μL of pre-chilled stop solution was added to each well of a 96-well deep well plate and placed on ice as a stop plate. The 96 well incubation plate and NADPH regeneration system were placed in a 37° C. water bath box, shaken at 100 rpm and pre-incubated for 5 min. 80 μL of incubation solution was taken out from each well of the incubation plate and added to the stop plate, mixed, and replenished with 20 μL of NADPH regeneration system solution as a 0-min sample. 80 μL of NADPH regeneration system solution was added to each well of the incubation plate to start the reaction and start counting. […] Separately, 100 μL of the reaction solution was taken at 10, 30, and 90 min reaction, respectively, added to a stop plate, and vortexed for 3 minutes to terminate the reaction. The stop plate was centrifuged at 5000×g at 4° C. for 4 min. 100 μL of the supernatant was added to a 96-well plate to which 100 μL of distilled water was previously added, mixed, and analyzed by LC-MS/MS.
(§5) Data analysis: The peak areas of the corresponding compound and internal standard were detected by LC-MS/MS system, and the ratio of the peak area of the compound to the internal standard was calculated. The slope was measured by plotting the natural logarithm of the percent of compound remaining versus time, and t1/2 and CLint were calculated according to the formula, where V/M is equal to 1/protein concentration.
A general note: Liver microsomes are vesicles of endoplasmic reticulum, rich in cytochrome P450 enzymes.

A short description of data set [2]: Metabolic stability in rat liver microsomes. It counts as in vitro ADME, SD rat. The note with it: Sprague-Dawley, pH 7.4, rat liver microsomes 0.5 mg/mL, compound 1 μM, NADPH, 37° C. On the procedure:
as §1, §2, §3, §4, §5

Data set [3] is described as follows: Pharmacokinetic evaluation in rats. The note with it: rat; for AUC(0-inf) / AUC(0-t) / Tmax / MRT inf / Cmax: plasma; for MRT inf: read-out: MRTINF_pred. It counts as in vivo, Sprague-Dawley rats. The protocol: 6 male Sprague-Dawley rats (7-8 weeks old, and weighing approximately 210 g) were divided into 2 groups with 3 rats in each group. The rats were intravenously or orally administered a single dose of compound (3 mg/kg intravenously, 10 mg/kg orally) to compare pharmacokinetic differences.
The rats were raised on standard food and water. Fasting was started 16 hours before the test. The drug was dissolved with PEG400 and dimethyl sulfoxide. The blood samples were collected from eyelids at the time points of 0.083 hours, 0.25 hours, 0.5 hours, 1 hour, 2 hours, 4 hours, 6 hours, 8 hours, 12 hours, and 24 hours after administration.
Rats were briefly anesthetized after inhalation of diethyl ether and 300 μL of blood sample was collected from the eyelids into test tubes. There was 30 μL of 1% heparin salt solution in the test tube. Tubes were dried at 60° C. overnight before use. After the blood sample was collected at a later time point, the rats were sacrificed after ether anesthesia.
Immediately after the collection of the blood sample, the test tube was gently inverted at least 5 times to ensure sufficient mixing and then placed on ice. The blood sample was centrifuged at 5000 rpm at 4° C. for 5 minutes to separate the plasma from the red blood cells. 100 μL of plasma was aspirated into a clean plastic centrifuge tube with a pipette, marking with the name of the compound and time point. Plasma was stored at −80° C. prior to analysis. The concentration of the compound of the present disclosure in plasma was determined by LC-MS/MS. The pharmacokinetic parameters were calculated based on the blood concentration of each animal at different time points.

Setting [4] is: male, Sprague-Dawley, IV, 3 mg/kg single dose.
Where [5] appears, read: male, Sprague-Dawley, PO, 10 mg/kg single dose.

Where two headings read alike, the source gives them in different places.

`Cc1nc(C(=O)NCC(=O)O)c(O)c2ccc(Oc3ccccc3)cc12` [FG-4592, reference compound]: the microsomal CLint at 1 μM in data set [1] and in data set [2] was less than 8.6 µL/min/mg in each case. For the same compound, the half-life at 1 μM in data set [1] (read-out: t1/2 in human liver microsomes) and in data set [2] (read-out: t1/2 in rat liver microsomes) was greater than 2.42 h each time. The AUC(0-inf) (as a rule, total exposure, with the tail of the curve extrapolated) in data set [3] (setting [4]) came out at 63.8 µg·h/mL; in data set [3] (setting [5]), 196 µg·h/mL. For the same compound, the AUC(0-t) (usually the area under the concentration-time curve up to a stated or last time point) amounted to 63.8 µg·h/mL in data set [3] (setting [4]) and 196 µg·h/mL in data set [3] (setting [5]). In addition, the figures for the Tmax in data set [3] (setting [4]) and in data set [3] (setting [5]) were 0.08 h and 2.83 h, respectively. The MRT inf turned out to be 2.82 h in data set [3] (setting [4]) and 5.03 h in data set [3] (setting [5]). This compound yielded a F in data set [3] (male, Sprague-Dawley, in vivo) of 92.21%. Besides, the half-life in data set [3] (male, Sprague-Dawley, in vivo, iv, 3 mg/kg) is 2.08 h; in data set [3] (male, Sprague-Dawley, in vivo, po, 10 mg/kg), 2.78 h. Also, the highest concentration (Cmax) (commonly the highest concentration seen after dosing) in data set [3] (setting [4]) is 21100 ng/mL; in data set [3] (setting [5]), 22100 ng/mL. Also, the Vz_pred in data set [3] (IV, 3 mg/kg single dose) is listed as 0.15 L/kg; in data set [3] (PO, 10 mg/kg single dose) it was 0.20 L/kg.
